{"source": "paper PMC5471453", "about": "“Dual-targeted peptide-conjugated multifunctional fluorescent probe with AIEgen for efficient nucleus-specific imaging and long-term tracing of cancer cells” (Chemical Science, 2017)", "key": {"[1]": {"system": "A375 cells co-cultured with MDA-MB-231 cells or HLF cells", "assay": "Leak-free marking: stained A375 cells co-cultured with unstained cells", "assay_type": "cell-based, human", "conditions": "co-cultured with MDA-MB-231 or HLF cells for 24 h; CLSM", "excerpt": "The cytocompatible nature of TCNTP and its precisely targeted interaction with organelles may account for the leak-free marking inside cells. A375 cells stained by TCNTP were co-cultured with MDA-MB-231 cells or human lung fibroblast (HLF) cells (normal human cell line), in order to evaluate whether TCNTP could be utilized to discriminate between different cell lines. TCNTP could easily stain the MDA-MB-231 cells and HLF cells in monoculture experiment (Fig. S22 ^†).\nThe excellent intracellular preservation of TCNTP may be used to develop novel fluorescent probes for differentiating specific cancerous cells from normal cells and for tracing diffusion, necrosis, shrinkage and suppression processes of tumor cells.\nFig. 6 The experimental scheme of TCNTP-stained (A) or Hoechst 33258-stained (F) A375 cells co-cultured with unstained cells. The CLSM imaging of co-cultivated TCNTP-stained (B) A375 cells and unstained MDA-MB-231 cells (the blue ellipses) or (D) TCNTP-stained A375 cells and unstained HLF cells (the blue ellipses). The average fluorescence intensity of TCNTP in four partial enlarged views (C and E). […] The average fluorescence intensity of Hoechst 33258 in four partial enlarged views (H and J). The blue fluorescence channel: excitation wavelength, 405 nm; emission collected, 425–485 nm. The yellow fluorescence channel: excitation wavelength, 405 nm; emission collected, 495–575 nm. […]"}, "A375 cells": {"system": "A375 cells", "assay": "Long-term tracing of cancer cells over culture cycles (CLSM)", "assay_type": "cell-based, human", "conditions": "3 μM for 4 h, after the fifth culture cycle (5 d)", "description": "Due to reverse diffusion, most conventional dyes cannot be retained in living cells for more than a few hours.[35] Although some cell-tracker fluorescence dyes, for example Hoechst stains, can remain in viable cells for a few generations, they bind to DNA and thus interfere with DNA replication during cell division which can be cytotoxic. […] A375 cells were incubated separately with each of 3 μM TCNTP and Hoechst 33258. After 4 h incubation, the probe (or dye) was discarded and the labelled cells continued to be cultured overnight. Then the labelled cells were digested and divided into two dishes for another overnight incubation, referred to as one culture cycle. […] While the yellow fluorescence of TCNTP mainly distributed to cytoplasm for the third culture cycle (3 d) due to degradation of peptides and redistribution of the probe during cell division. […]\nFig. 5 The CLSM imaging of A375 cells treated with 3 μM TCNTP (A) and 3 μM Hoechst 33258 (B) for 4 h with further incubation for 1 d, 3 d and 5 d in cell culturing conditions. (C) The average fluorescence intensity of TCNTP and Hoechst 33258 in 60× microscopic field (the insets). […]\nThe cells stained by TCNTP were still visible even after the tenth culture cycle (Fig. S20 ^†), whereas very weak fluorescence signals were detected in the Hoechst 33258-stained cells after the third culture cycle (Fig. 5B). […]"}, "[2]": {"system": "MDA-MB-231 cells, HT-1080 cells, A375 cells and HLF cells", "assay": "MTT assay of cell viability", "assay_type": "cell-based", "conditions": "1 μM, 5 μM and 10 μM for 48 h in triplicate, 96-well plate; absorbance 570 nm; all the cell lines", "description": "Japan). All fluorescence images were analysed with FV10-ASW V4.0 Image software (Olympus). Three-dimensional map of cells were used 3D rendering by Imaris (Andor-Bitplane, Zurich). Co-localization analysis were used Image-Pro Plus 6.0.\nThe cytotoxic potential of PyTPE, Hoechst 33258 and TCNTP was assessed using the MTT assay. MDA-MB-231 cells, HT-1080 cells, A375cells and HLF cells were respectively treated with PyTPE (1 μM, 5 μM and 10 μM), Hoechst 33258 (1 μM, 5 μM and 10 μM) and TCNTP (1 μM, 5 μM and 10 μM) for 48 h in triplicate in a 96-well plate. The absorbance of MTT at 570 nm was recorded by the Infinite M200 PRO […]\nFig. S21 Metabolic viability of (A) MDA-MB-231 cells, (B) HT-1080 cells, (C) A375 cells and (D) HLF cells after incubation with PyTPE and TCNTP at concentrations of 1 μM, 5 µM and 10 µM for 48 h. Black bars represent PyTPE, red bars represent TCNTP and blue bars […]\nFig. S22 Fluorescence images of HLF cells treated with 3 µM PyTPE (A) and TCNTP (B) with Hoechst 33258 of each formulation for 12h in cell culturing condition. The white scale […]"}}, "data": [{"smiles": "CN1CCN(c2ccc3[nH]c(-c4ccc5[nH]c(-c6ccc(O)cc6)nc5c4)nc3c2)CC1", "note": "[Hoechst 33258]", "values": [{"measurement": "leakage of dye from stained A375 cells into unstained cells", "setting": "[1]", "value": "fast leakage"}, {"measurement": "Active Cells Remaining (number of remaining stained living cells)", "setting": "A375 cells; 10× microscopic field", "value": 2, "unit": "%"}, {"measurement": "Signal Remaining (fluorescence signal remaining)", "setting": "A375 cells; 60× microscopic field", "value": 6, "unit": "%"}, {"measurement": "toxicity by MTT assay of cell viability", "setting": "[2]", "value": "high toxicity"}]}]}
